The source made the active and inactive calls. Rule as the data show it, for most assays here: actives have a measured EC50 and inactives only a lower limit.
Assays:
[1] = target: Fructose-bisphosphate aldolase (Mycobacterium tuberculosis, UniProt P9WQA3); test: Fluorescence-based biochemical high throughput dose response assay for inhibitors of the fructose-bisphosphate aldolase (FBA) of M. tuberculosis.; assay type: functional
[2] = test system: BJ; test: cells; assay type: functional, cell-based; conditions: Homo sapiens
[3] = test system: BJ; test: cytotoxicity toward Ras-transformed BJeLR fibroblasts, dose response, cell-based, alamar blue fluorescence, cherrypicked samples (AID 2631); assay type: functional; conditions: Homo sapiens;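 also: confirmatory dose-response assay in RAS-dependent BJ fibroblasts engineered with TERT, LT and ST, with cytotoxicity read by fluorescence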
[4] = test system: Streptococcus sp. 'group A'; test: growth inhibition of control SK(-) GAS strain, dose response, counter-screen for streptokinase expression inhibitor project, luminescence, kanamycin, BacTiterGlo, confirmation (AID 1900); assay type: functional, organism-based
[5] = test system: Streptococcus; test: Group A Streptococcus viability loss, dose response, counter-screen for streptokinase expression inhibitor project, luminescence, BacTiterGlo (AID 1915); assay type: functional, organism-based;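 also: potency for reduction of bacterial viability or growth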
[6] = test system: BJ; test: cytotoxicity toward BJ-TERT fibroblasts, dose response, cell-based, RAS-independent, luminescence (AID 1933); assay type: functional; conditions: Homo sapiens
[7] = target: T1, Streptokinase A (Streptococcus pyogenes serotype M1, UniProt P10520); test: S. pyogenes streptokinase expression inhibitors, potency, dose response, plasminogen activation absorbance, OD405 (AID 1914); assay type: functional, Streptococcus pyogenes M1 GAS;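 also: secreted streptokinase activity via plasminogen activation per viability signal from cell pellet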
T1 sequence (P10520 whole entry): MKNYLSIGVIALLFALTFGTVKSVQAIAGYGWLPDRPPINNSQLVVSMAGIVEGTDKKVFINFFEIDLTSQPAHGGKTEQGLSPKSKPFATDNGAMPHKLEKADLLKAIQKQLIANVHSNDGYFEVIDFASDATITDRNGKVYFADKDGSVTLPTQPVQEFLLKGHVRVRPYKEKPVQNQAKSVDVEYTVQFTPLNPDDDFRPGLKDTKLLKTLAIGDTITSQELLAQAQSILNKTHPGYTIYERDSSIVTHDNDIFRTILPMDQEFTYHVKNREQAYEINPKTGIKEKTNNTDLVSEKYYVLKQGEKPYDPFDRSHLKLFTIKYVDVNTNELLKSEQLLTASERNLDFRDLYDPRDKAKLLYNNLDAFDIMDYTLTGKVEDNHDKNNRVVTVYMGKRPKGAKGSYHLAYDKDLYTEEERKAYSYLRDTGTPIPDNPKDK

[8] = Luminescence Cell-Based Dose Response to Identify Activators of 5'UTR Stem-Loop Driven Prion Protein mRNA Translation in H4-C Neuroglioblastoma Cells. [Related pubchem assays: 1829 (Project Summary), 1814 (Primary HTS)]; assay type: functional
[9] = target: Beta-lactamase (Pseudomonas aeruginosa, UniProt Q79MP6);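 also: biochemical dose-response test of metallo-beta-lactamase enzyme inhibition, read out by epi-absorbance; purified recombinant IMP-1 metallo-beta-lactamase with nitrocefin as substrate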
[10] = cytotoxicity toward DRD oncogenic fibroblasts, dose response, cell-based, non-viral oncogenic, luminescence (AID 1934); assay type: functional; conditions: Homo sapiens
[11] = target: Beta-lactamase (Salmonella choleraesuis (strain SC-B67), UniProt Q5J463)
[12] = test system: H4; test: Luminescence Cell-Based Dose Response HTS to Identify Activators of 5'UTR Stem-Loop Driven Prion Protein mRNA Translation in H4 Neuroglioblastoma Cells. [Related pubchem assays: 1829 (Project Summary), 1814 (Primary HTS)]; assay type: functional; conditions: Homo sapiens
[13] = test system: BJ; test: cytotoxicity toward BJ-TERT-LT-ST fibroblasts, dose response, cell-based, RAS-independent, luminescence (AID 1935); assay type: functional; conditions: Homo sapiens;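 also: BJ fibroblasts immortalized with TERT plus LT and ST oncogenes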
[14] = Luminescence Cell-Based Dose Response to Identify Activators of Luciferase Translation or Activity in H4-C Neuroglioblastoma Cells. [Related pubchem assays: 1829 (Project Summary), 1814 (Primary HTS)]; assay type: functional
[15] = Luminescence Cell-Based Dose Confirmation to Identify Activators of 5'UTR Stem-Loop Driven Alpha-Synuclein mRNA Translation in H4 Neuroglioblastoma Cells. [Related pubchem assays: 1829 (Project Summary), 1814 (Primary HTS)]; assay type: functional
[16] = target: T2, Trace amine-associated receptor 1 (Homo sapiens, UniProt Q96RJ0); test: Fluorescence-based cell-based high throughput dose response assay to identify agonists of the human trace amine associated receptor 1 (TAAR1).; assay type: functional
T2 sequence (Q96RJ0 whole entry): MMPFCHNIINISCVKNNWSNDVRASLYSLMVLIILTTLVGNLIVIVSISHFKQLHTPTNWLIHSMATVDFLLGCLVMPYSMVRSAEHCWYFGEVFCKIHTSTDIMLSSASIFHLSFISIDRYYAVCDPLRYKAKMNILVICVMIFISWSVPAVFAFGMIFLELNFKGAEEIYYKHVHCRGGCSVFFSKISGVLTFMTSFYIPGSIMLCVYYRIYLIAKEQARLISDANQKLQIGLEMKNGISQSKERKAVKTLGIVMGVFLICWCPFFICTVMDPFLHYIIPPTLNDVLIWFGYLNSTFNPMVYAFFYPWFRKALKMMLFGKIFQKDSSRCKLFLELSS

[17] = cells; assay type: functional, cell-based
[18] = cells; assay type: functional, cell-based; remark: listed apart in the source
[19] = target: T2, Trace amine-associated receptor 1; test: Counterscreen for agonists of the human trace amine associated receptor 1 (hTAAR1): Fluorescence-based cell-based high throughput dose response assay to identify hTAAR1 agonist that also desensitize TAAR1 receptor response.; assay type: functional
[20] = target: T3, Replicative DNA helicase DnaB (Mycobacterium tuberculosis, UniProt P9WMR3); test: DnaB intein splicing inhibitors, dose response, biochemical, cell-free fluorescence (AID 449749); assay type: functional
T3 sequence (P9WMR3 whole entry): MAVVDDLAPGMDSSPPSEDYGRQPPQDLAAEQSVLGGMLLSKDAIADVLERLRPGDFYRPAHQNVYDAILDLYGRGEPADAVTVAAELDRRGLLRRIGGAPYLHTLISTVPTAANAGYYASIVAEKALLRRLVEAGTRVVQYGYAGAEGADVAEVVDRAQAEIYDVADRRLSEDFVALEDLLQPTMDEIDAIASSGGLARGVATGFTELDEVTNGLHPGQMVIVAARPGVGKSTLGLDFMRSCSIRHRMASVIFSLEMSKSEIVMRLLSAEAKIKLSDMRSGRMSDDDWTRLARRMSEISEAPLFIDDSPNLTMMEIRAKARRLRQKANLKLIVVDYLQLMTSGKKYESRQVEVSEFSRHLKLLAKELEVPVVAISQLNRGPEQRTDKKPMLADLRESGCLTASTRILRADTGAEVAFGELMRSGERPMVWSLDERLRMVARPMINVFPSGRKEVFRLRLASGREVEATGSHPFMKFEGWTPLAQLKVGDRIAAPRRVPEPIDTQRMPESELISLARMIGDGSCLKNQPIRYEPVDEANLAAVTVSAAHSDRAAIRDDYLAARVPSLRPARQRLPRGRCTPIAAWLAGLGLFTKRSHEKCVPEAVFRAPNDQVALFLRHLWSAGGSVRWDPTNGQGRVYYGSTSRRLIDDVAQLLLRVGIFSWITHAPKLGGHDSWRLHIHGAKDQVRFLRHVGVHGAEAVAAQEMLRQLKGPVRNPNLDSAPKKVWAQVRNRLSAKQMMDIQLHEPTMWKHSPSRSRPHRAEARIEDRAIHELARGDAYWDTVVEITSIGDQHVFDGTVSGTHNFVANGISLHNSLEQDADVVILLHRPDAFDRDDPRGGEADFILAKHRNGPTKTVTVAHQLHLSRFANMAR

[21] = target: T4, Protein RecA (Mycobacterium tuberculosis, UniProt P9WHJ3); test: Fluorescence Cell-Free Homogeneous Dose Retest to Identify Inhibitors of RecA-Intein Splicing Activity. [Related pubchem assays (depositor defined):AID2097, AID2223, AID489010, AID492950]; assay type: functional
T4 sequence (P9WHJ3 whole entry): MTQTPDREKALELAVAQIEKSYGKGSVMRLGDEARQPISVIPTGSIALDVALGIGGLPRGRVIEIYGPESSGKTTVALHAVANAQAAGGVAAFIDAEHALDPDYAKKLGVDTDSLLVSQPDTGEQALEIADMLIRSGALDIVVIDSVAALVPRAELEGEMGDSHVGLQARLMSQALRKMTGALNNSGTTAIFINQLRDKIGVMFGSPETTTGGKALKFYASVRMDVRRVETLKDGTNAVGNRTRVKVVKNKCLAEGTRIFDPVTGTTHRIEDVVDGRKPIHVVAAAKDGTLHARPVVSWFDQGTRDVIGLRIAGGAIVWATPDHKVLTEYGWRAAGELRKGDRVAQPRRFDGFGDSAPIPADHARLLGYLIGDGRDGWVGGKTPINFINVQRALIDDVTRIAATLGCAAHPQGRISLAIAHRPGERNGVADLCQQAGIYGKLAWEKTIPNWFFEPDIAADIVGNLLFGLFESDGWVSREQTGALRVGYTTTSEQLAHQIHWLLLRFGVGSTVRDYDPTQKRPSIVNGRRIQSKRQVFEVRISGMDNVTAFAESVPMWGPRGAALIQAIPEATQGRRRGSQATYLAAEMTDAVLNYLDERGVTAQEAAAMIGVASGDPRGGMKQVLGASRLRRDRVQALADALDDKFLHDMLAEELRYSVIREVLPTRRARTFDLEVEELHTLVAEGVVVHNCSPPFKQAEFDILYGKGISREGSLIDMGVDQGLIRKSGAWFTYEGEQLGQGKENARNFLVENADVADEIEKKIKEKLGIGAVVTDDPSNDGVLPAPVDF

[22] = Counterscreen for activators of the function of SWI/SNF related, matrix associated, actin dependent regulator of chromatin, subfamily a, member 2 (SMARCA2, BRM): Luminescence-based cell-based high throughput dose response assay to identify non-selective compounds using the VP16 reporter assay.; assay type: functional
[23] = target: SWI/SNF-related matrix-associated actin-dependent regulator of chromatin subfamily A member 2 (Homo sapiens, UniProt P51531); test: Luminescence-based cell-based high throughput dose response assay to identify activators of the function of SWI/SNF related, matrix associated, actin dependent regulator of chromatin, subfamily a, member 2 (SMARCA2, BRM).; assay type: functional
Sequence of SWI/SNF-related matrix-associated actin-dependent regulator of chromatin subfamily A member 2 (P51531 whole entry): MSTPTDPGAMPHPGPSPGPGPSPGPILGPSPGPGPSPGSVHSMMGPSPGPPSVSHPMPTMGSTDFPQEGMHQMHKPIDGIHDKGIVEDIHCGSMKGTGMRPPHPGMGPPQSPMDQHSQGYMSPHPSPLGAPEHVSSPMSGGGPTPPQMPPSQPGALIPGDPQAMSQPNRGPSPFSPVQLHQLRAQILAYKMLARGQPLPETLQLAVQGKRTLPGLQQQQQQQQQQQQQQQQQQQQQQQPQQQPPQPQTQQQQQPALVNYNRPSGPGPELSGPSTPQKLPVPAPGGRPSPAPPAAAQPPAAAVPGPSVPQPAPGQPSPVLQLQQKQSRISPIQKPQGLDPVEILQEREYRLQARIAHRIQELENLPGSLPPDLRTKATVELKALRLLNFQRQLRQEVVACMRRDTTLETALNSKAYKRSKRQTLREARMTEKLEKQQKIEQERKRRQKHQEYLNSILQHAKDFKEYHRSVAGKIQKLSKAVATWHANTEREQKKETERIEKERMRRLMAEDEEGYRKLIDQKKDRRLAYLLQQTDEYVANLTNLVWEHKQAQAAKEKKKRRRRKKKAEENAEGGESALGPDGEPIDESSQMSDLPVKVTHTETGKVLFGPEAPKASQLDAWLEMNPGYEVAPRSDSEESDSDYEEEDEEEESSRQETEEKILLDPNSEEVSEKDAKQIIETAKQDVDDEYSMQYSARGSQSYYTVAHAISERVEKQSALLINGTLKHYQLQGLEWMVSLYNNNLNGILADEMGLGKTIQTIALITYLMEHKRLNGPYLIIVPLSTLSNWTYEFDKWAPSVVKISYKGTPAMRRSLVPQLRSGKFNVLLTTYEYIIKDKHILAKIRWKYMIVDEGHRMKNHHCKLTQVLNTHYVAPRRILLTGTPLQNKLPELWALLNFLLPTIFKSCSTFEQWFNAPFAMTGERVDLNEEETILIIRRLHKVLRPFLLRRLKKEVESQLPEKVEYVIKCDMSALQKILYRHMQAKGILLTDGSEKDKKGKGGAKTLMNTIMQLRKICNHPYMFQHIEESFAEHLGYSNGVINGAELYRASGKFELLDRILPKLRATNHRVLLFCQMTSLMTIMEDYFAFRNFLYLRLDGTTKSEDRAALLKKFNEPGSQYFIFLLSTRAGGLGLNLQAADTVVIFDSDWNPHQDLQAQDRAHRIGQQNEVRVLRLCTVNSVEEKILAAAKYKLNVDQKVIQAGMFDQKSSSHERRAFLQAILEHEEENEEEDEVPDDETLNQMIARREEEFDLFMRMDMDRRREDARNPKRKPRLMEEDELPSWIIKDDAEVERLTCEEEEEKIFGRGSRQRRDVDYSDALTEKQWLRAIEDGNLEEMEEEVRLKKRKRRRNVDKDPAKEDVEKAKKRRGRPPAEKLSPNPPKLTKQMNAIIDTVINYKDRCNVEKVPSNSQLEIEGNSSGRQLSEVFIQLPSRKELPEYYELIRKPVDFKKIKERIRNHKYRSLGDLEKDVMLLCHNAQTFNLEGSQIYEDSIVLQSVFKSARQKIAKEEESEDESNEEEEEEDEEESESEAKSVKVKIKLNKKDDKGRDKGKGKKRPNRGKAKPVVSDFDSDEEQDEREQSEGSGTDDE

Sequence of Beta-lactamase (Pseudomonas aeruginosa, UniProt Q79MP6) (Q79MP6 whole entry): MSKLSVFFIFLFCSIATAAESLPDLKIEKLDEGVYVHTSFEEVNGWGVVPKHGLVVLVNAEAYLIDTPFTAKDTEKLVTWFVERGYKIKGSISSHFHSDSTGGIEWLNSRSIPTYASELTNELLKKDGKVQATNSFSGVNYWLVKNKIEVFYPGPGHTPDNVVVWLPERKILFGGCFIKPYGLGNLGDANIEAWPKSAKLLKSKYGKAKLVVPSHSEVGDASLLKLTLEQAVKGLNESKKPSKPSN
Sequence of Beta-lactamase (Salmonella choleraesuis (strain SC-B67), UniProt Q5J463) (Q5J463 whole entry): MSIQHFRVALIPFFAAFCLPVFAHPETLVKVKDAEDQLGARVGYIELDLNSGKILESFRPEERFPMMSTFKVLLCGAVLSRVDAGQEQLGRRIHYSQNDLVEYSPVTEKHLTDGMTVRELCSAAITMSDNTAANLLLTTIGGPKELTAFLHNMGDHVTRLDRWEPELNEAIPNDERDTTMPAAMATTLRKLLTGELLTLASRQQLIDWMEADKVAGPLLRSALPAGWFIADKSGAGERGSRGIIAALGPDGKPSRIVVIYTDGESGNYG
Sequence of Fructose-bisphosphate aldolase (P9WQA3 whole entry): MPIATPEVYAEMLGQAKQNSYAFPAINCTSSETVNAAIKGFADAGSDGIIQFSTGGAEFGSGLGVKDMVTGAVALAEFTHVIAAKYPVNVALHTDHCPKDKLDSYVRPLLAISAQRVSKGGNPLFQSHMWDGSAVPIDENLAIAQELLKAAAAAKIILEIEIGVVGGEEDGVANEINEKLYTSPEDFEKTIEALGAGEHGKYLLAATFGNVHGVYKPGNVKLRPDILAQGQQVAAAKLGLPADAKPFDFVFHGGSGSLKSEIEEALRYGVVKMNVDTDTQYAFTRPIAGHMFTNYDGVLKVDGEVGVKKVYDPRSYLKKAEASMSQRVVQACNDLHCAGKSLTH

Cc1nn(-c2ccccc2)c(O)c1/C=N/c1cnc2ccccc2c1
IC50 [1]: > 3.33 µM (active)

CCC(/C=C1\Sc2ccc3ccccc3c2N1C)=C\c1sc2ccc3ccccc3c2[n+]1C
EC50 [2]: 0.352 µM (inconclusive) | EC50 [3]: < 0.104 µM (active) | EC50 [4]: 3.13 µM (active) | EC50 [5]: 15.5 µM (active) | EC50 [6]: 0.164 µM (active) | EC50 [7]: > 150 µM (not active) | EC50 [8]: > 12 µM (not active) | IC50 [9]: > 59.6 µM (inactive) | EC50 [10]: 0.395 µM (active) | IC50 [11]: > 59.6 µM (inactive) | EC50 [12]: > 120 µM (not active) | EC50 [13]: 0.343 µM (inconclusive) | EC50 [14]: > 12 µM (not active) | EC50 [15]: 3.46 µM (inconclusive)

OCCNc1nc(Nc2ccccc2)nc2ccccc12
EC50 [16]: 0.0634 µM (active) | EC50 [17]: > 29.9 µM (inactive) | IC50 [18]: > 29.9 µM (inactive) | IC50 [19]: 0.2 µM (active)

Brc1ccc(Cn2c(-c3ccc(Br)o3)nc3ccccc32)o1
AC50 [20]: 147 µM (active) | EC50 [21]: 9.48 µM (active) | EC50 [22]: > 91.2 µM (inactive) | EC50 [23]: > 91.2 µM (inactive)

— ChEMBL document CHEMBL1201862, “PubChem BioAssay data set” (2004)
